Measurements as given in US12522588B2, “Herbicidal compounds” (SYNGENTA CROP PROTECTION AG, priority 2020, dated 2026).

Columns and labels:
Format in all cases: in vivo
[1] = test system: Amaranthus retoflexus (AMARE); experiment: Post-emergence test, glasshouse; conditions: 250 g/ha
Description: (§1) Seeds of a variety of test species are sown in standard soil in pots Amaranthus retoflexus (AMARE), Abutilon theophrasti (ABUTH), Setaria faberi (SETFA), Echinochloa crus-galli (ECHCG), Ipomoea hederacea (IPOHE)). After cultivation for one day (pre-emergence) or after 8 days cultivation (post-emergence) under controlled conditions in a glasshouse (at 24/16° C., day/night; 14 hours light; 65% humidity), the plants are sprayed with an aqueous spray solution derived from the formulation of the technical active ingredient in acetone/water (50:50) solution containing 0.5% Tween 20 (polyoxyethelyene sorbitan monolaurate, CAS RN 9005-64-5). Compounds are applied at 250 g/ha unless otherwise stated. The test plants are then grown in a glasshouse under controlled conditions in a glasshouse (at 24/16° C., day/night; 14 hours light; 65% humidity) and watered twice daily. After 13 days for pre and post-emergence, the test is evaluated for the percentage damage caused to the plant. The biological activities are shown in the following table on a five-point scale (5=81-100%; 4=61-80%; 3=41-60%; 2=21-40%; 1=0-20%).

[2] = test system: Echinochloa crus-galli (ECHCG); experiment: Post-emergence test, glasshouse; conditions: 250 g/ha
Description: as §1

[3] = test system: Ipomoea hederacea (IPOHE); experiment: Post-emergence test, glasshouse; conditions: 250 g/ha
Description: as §1

[4] = test system: Setaria faberi (SETFA); experiment: Post-emergence test, glasshouse; conditions: 250 g/ha
Description: as §1

[5] = test system: Amaranthus retoflexus (AMARE); experiment: Pre-emergence test, glasshouse; conditions: 250 g/ha
Description: as §1

[6] = test system: Echinochloa crus-galli (ECHCG); experiment: Pre-emergence test, glasshouse; conditions: 250 g/ha
Description: as §1

[7] = test system: Ipomoea hederacea (IPOHE); experiment: Pre-emergence test, glasshouse; conditions: 250 g/ha
Description: as §1

[8] = test system: Setaria faberi (SETFA); experiment: Pre-emergence test, glasshouse; conditions: 250 g/ha
Description: as §1

[9] = test system: Abutilon theophrasti (ABUTH); experiment: Post-emergence test, glasshouse; conditions: 250 g/ha
Description: as §1

[10] = test system: Abutilon theophrasti (ABUTH); experiment: Pre-emergence test, glasshouse; conditions: 250 g/ha; for percentage damage caused to the plant, ABUTH: evaluated after 13 days, Table B2; for percentage damage caused to the plant, LABUTH: comparative test
Description: as §1

[11] = evaluated after 13 days, Table B1
[12] = evaluated after 13 days, Table B2

Compound	percentage damage caused to the plant, AMARE [1, 11]	percentage damage caused to the plant, ECHCG [2, 11]	percentage damage caused to the plant, IPOHE [3, 11]	percentage damage caused to the plant, SETFA [4, 11]	percentage damage caused to the plant, AMARE [5, 12]	percentage damage caused to the plant, ECHCG [6, 12]	percentage damage caused to the plant, IPOHE [7, 12]	percentage damage caused to the plant, SETFA [8, 12]	percentage damage caused to the plant, ABUTH [9, 11]	percentage damage caused to the plant, ABUTH [10]	percentage damage caused to the plant, ABUTH ([9]; comparative test)	percentage damage caused to the plant, AMARE ([1]; comparative test)	percentage damage caused to the plant, ECHCG ([2]; comparative test)	percentage damage caused to the plant, SETFA ([4]; comparative test)	percentage damage caused to the plant, LABUTH [10]	percentage damage caused to the plant, AMARE ([5]; comparative test)	percentage damage caused to the plant, ECHCG ([6]; comparative test)	percentage damage caused to the plant, IPOHE ([7]; comparative test)	percentage damage caused to the plant, SETFA ([8]; comparative test)	percentage damage caused to the plant, IPOHE ([3]; comparative test)
Fc1cnc(Oc2cc(C(F)(F)F)nn2-c2ccc(C(F)(F)F)cc2)nc1 [Compound 1.021]	4 (4=61-80%)	5 (5=81-100%)	4 (4=61-80%)	4 (4=61-80%)	5 (5=81-100%)	5 (5=81-100%)	2 (2=21-40%)	5 (5=81-100%)												
FC(F)(F)c1cccc(-n2nc(C(F)(F)F)cc2Oc2ncc(Cl)cn2)c1 [Compound 1.003]	5 (5=81-100%)	1 (1=0-20%)	2 (2=21-40%)	3 (3=41-60%)	5 (5=81-100%)	2 (2=21-40%)	1 (1=0-20%)	5 (5=81-100%)	1 (1=0-20%)	1 (1=0-20%)										
FC(F)c1cc(Oc2ncc(Cl)cn2)n(-c2ccc(C(F)(F)F)cc2)n1 [Compound 1.005]	5 (5=81-100%)	1 (1=0-20%)	2 (2=21-40%)	2 (2=21-40%)	4 (4=61-80%)	1 (1=0-20%)	1 (1=0-20%)	2 (2=21-40%)	3 (3=41-60%)	1 (1=0-20%)										
Cc1ccc(-n2nc(C(F)(F)F)cc2Oc2ncc(Cl)cn2)cc1 [Compound 1.029]	4 (4=61-80%)	2 (2=21-40%)	2 (2=21-40%)	2 (2=21-40%)	3 (3=41-60%)	4 (4=61-80%)	1 (1=0-20%)	4 (4=61-80%)												
Cc1cnc(Oc2cc(C(F)(F)F)nn2-c2ccc(C(F)(F)F)cc2)nc1 [Compound 1.020, 5-methyl-2-[5-(trifluoromethyl)-2-[4-(trifluoromethyl)phenyl]pyrazol-3-yl]oxy-pyrimidine]	5 (5=81-100%)	4 (4=61-80%)	3 (3=41-60%)	4 (4=61-80%)	5 (5=81-100%)	5 (5=81-100%)	1 (1=0-20%)	5 (5=81-100%)												
FC(F)(F)c1ccc(-n2nc(C(F)(F)F)cc2Oc2ncc(Cl)cn2)cc1 [Compound 1.001, 5-chloro-2-[5-(trifluoromethyl)-2-[4-(trifluoromethyl)phenyl]pyrazol-3-yl]oxy-pyrimidine]	5 (5=81-100%)	5 (5=81-100%)		5 (5=81-100%)	5 (5=81-100%)	5 (5=81-100%)	5 (5=81-100%)	5 (5=81-100%)	5 (5=81-100%)	4 (4=61-80%)	5 (5=81-100%)	5 (5=81-100%)	5 (5=81-100%)	5 (5=81-100%)	4 (4=61-80%)	5 (5=81-100%)	5 (5=81-100%)	5 (5=81-100%)	5 (5=81-100%)	
FC(F)(F)c1ccc(-n2nc(C(F)(F)F)cc2Oc2ncc(Br)cn2)cc1 [Compound 1.036, 5-bromo-2-[5-(trifluoromethyl)-2-[4-(trifluoromethyl)phenyl]pyrazol-3-yl]oxy-pyrimidine]	4 (4=61-80%)	1 (1=0-20%)	2 (2=21-40%)	1 (1=0-20%)	3 (3=41-60%)	4 (4=61-80%)	1 (1=0-20%)	4 (4=61-80%)												
Cc1cc(Oc2ncc(Cl)cn2)n(-c2ccc(C(F)(F)F)cc2)n1 [Compound C1, reference compound]											2 (2=21-40%)	4 (4=61-80%)	1 (1=0-20%)	2 (2=21-40%)	1 (1=0-20%)		1 (1=0-20%)	1 (1=0-20%)	2 (2=21-40%)	1 (1=0-20%)
Fc1ccccc1-n1nc(C(F)(F)F)cc1Oc1ncc(Cl)cn1 [Compound 1.033]	3 (3=41-60%)	1 (1=0-20%)	1 (1=0-20%)	1 (1=0-20%)	2 (2=21-40%)	1 (1=0-20%)	1 (1=0-20%)	1 (1=0-20%)												
FC(F)Oc1ccc(-n2nc(C(F)(F)F)cc2Oc2ncc(Cl)cn2)cc1 [Compound 1.028]	4 (4=61-80%)	2 (2=21-40%)	1 (1=0-20%)	2 (2=21-40%)	2 (2=21-40%)	1 (1=0-20%)	1 (1=0-20%)	2 (2=21-40%)												
Cc1ncc(-n2nc(C(F)(F)F)cc2Oc2ncc(Cl)cn2)cn1 [Compound 1.022, 5-chloro-2-[2-(2-methylpyrimidin-5-yl)-5-(trifluoromethyl)pyrazol-3-yl]oxy-pyrimidine]	5 (5=81-100%)	4 (4=61-80%)	1 (1=0-20%)	4 (4=61-80%)	5 (5=81-100%)	4 (4=61-80%)	1 (1=0-20%)	5 (5=81-100%)												
